Data as given in patent US20170008888A1 (KYORIN PHARMACEUTICAL CO., LTD., priority 2014, published 2017).

Columns and labels:
Assay type in all cases: binding
AurA = molecular target: T1, AurA (Homo sapiens, UniProt O14965); assay: Probe-based (AX9989) kinase profiling in Jurkat lysate: AurA; settings: read-out: Kinase inhibition % at indicated screening concentration: AurA; for inhibition at 1 µM: screening concentration 1.0 μM
T1 construct: screened for activity against several kinases in Jurkat cells; endogenous in cells; host or cells: Jurkat cell lysate
T1 sequence (O14965 1-403): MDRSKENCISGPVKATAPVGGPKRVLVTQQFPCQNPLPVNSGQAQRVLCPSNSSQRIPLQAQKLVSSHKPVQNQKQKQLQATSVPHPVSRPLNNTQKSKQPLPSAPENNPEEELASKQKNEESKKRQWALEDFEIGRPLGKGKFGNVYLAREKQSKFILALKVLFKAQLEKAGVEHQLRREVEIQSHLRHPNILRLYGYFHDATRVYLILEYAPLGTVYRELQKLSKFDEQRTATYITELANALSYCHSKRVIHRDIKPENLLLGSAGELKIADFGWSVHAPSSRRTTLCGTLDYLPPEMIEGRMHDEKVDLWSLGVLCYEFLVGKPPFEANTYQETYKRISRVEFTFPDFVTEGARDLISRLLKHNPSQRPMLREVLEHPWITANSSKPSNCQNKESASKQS
Outline: (§1)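 Jurkat lysate (50 mM HEPES pH 7.5, 150 mM NaCl, 0.1% Triton X-100, 20 mM MnCl2) pre-incubated 15 min with compound at room temperature, then labeled with 5 μM acyl phosphate ATP probe AX9989. Tryptic probe-labeled peptides streptavidin-captured and quantified by LC/MS; percent inhibition from decreased fragment intensity versus untreated.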

JAK1 = molecular target: T2, JAK1 (Homo sapiens, UniProt P23458); assay: Probe-based (AX9989) kinase profiling in Jurkat lysate: JAK1; settings: read-out: Kinase inhibition % at indicated screening concentration: JAK1; for inhibition at 1 µM: screening concentration 1.0 μM
T2 construct: screened for activity against several kinases in Jurkat cells; endogenous in cells; host or cells: Jurkat cell lysate
Outline: as §1

ABL or ARG = assay: Probe-based (AX9989) kinase profiling in Jurkat lysate: ABL or ARG
Outline: as §1

AurB or AurC = assay: Probe-based (AX9989) kinase profiling in Jurkat lysate: AurB or AurC
Outline: as §1

ACK = molecular target: T3, ACK (Homo sapiens, UniProt Q07912); assay: Probe-based (AX9989) kinase profiling in Jurkat lysate: ACK; settings: read-out: Kinase inhibition % at indicated screening concentration: ACK; for inhibition at 1 µM: screening concentration 1.0 μM
T3 construct: screened for activity against several kinases in Jurkat cells; endogenous in cells; host or cells: Jurkat cell lysate
Outline: as §1

[1] = molecular target: T4, BRD4 bromodomain domain I [BRD4(1)] (Homo sapiens, UniProt O60885); assay: BRD4 bromodomain domain 1 inhibition assay (TR-FRET); settings: screening concentration 10 μM
T4 construct: BRD4 bromodomain domain I [BRD4(1)]; purchased Cayman Chemicals
Method: The inhibitory activity of test compounds on the bromodomain, BRD4 bromodomain domain I [BRD4(1)], were determined via TR-FRET after a slight modification of the manufacturer's protocol (Cayman Chemicals, Ann Arbor, Mich.). Briefly, compounds were diluted to a 20× ([…]) concentration in DMSO. 100 nL of 20× compounds were then dry stamped into triplicate wells of black, low volume 384 well plates (Aurora Biotechnologies, Carlsbad, Calif.) using the Mosquito liquid handler (TPP Labtech, Melbourn, UK). 20× compounds were then diluted to a 4× (40 μM) concentration in Assay Buffer to result in 2% DMSO content. […] JQ1 at 10 μM or 0.5% DMSO final concentrations were used as the positive and negative controls, respectively, to set the assay window. The fluorescence was read in a time-resolved format on the Biotec Synergy 2 plate reader by exciting the signal at 340 nm and reading emissions at 620 and 670, using a 100 μs delay and 200 μs read window. […] Briefly, TR-FRET ratio values were normalized to the average TR-FRET ratio value given by 10 μM JQ1. […]

AMPKa1 or AMPKa2 = assay: Probe-based (AX9989) kinase profiling in Jurkat lysate: AMPKa1 or AMPKa2
Outline: as §1

TAO2 = molecular target: T5, TAO2 (Homo sapiens, UniProt Q9UL54); assay: Probe-based (AX9989) kinase profiling in Jurkat lysate: TAO2; settings: read-out: Kinase inhibition % at indicated screening concentration: TAO2; for inhibition at 1 µM: screening concentration 1.0 μM
T5 construct: screened for activity against several kinases in Jurkat cells; endogenous in cells; host or cells: Jurkat cell lysate
T5 sequence (Q9UL54 1-1235): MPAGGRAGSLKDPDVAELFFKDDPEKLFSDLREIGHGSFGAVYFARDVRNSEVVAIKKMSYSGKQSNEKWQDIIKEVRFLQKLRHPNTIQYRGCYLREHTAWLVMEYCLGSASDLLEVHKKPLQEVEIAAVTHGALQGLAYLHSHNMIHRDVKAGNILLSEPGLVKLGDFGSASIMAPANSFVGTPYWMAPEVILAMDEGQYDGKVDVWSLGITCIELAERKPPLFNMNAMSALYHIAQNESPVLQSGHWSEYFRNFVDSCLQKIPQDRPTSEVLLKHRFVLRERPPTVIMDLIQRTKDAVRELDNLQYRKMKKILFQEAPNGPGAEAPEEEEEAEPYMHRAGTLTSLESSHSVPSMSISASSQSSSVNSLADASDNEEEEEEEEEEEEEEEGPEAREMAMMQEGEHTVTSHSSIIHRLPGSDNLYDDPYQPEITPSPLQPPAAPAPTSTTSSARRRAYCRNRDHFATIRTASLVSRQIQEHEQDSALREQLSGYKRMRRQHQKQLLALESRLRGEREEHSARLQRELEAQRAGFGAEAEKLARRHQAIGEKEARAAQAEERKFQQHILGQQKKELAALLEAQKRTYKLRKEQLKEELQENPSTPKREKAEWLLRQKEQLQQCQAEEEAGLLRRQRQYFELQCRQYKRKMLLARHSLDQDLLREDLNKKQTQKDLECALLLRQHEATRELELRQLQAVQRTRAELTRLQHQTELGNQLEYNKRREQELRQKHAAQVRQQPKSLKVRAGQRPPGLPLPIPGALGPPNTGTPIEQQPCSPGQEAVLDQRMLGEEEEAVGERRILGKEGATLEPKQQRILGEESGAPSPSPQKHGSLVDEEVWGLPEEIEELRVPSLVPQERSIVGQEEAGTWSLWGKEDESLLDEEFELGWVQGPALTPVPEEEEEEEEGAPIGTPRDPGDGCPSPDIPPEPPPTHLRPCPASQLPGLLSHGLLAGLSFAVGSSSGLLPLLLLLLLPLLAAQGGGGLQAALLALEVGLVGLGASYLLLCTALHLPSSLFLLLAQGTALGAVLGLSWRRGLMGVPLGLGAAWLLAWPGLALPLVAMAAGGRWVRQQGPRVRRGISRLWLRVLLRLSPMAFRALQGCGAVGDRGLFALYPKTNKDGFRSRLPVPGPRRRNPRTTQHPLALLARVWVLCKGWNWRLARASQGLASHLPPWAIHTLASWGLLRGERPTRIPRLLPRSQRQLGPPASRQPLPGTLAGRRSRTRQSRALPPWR
Outline: as §1

ERK5 = molecular target: T6, ERK5 (Homo sapiens, UniProt Q13164); assay: Probe-based (AX9989 acyl phosphate ATP probe) kinase profiling in Jurkat lysate: ERK5; settings: for IC50: calculated from percent inhibition of AX9989 labeling and the screening concentration, Jurkat lysate; for inhibition at 1 µM: screening concentration 1.0 μM
T6 construct: screened for activity against several kinases in Jurkat cells; endogenous in cells; host or cells: Jurkat cell lysate
Outline: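 ERK5 IC50 values came from percent inhibition at the screening concentration, measured as loss of LC/MS signal of probe-labelled active-site peptides. Compound was added for 15 min at room temperature to Jurkat lysate (5 mg/ml, 20 mM MnCl2) before labelling with AX9989 ATP acyl phosphate probe at 5 μM.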

[2] = read-out: Kinase inhibition % at indicated screening concentration: ERK5

T2 sequence (P23458 whole entry): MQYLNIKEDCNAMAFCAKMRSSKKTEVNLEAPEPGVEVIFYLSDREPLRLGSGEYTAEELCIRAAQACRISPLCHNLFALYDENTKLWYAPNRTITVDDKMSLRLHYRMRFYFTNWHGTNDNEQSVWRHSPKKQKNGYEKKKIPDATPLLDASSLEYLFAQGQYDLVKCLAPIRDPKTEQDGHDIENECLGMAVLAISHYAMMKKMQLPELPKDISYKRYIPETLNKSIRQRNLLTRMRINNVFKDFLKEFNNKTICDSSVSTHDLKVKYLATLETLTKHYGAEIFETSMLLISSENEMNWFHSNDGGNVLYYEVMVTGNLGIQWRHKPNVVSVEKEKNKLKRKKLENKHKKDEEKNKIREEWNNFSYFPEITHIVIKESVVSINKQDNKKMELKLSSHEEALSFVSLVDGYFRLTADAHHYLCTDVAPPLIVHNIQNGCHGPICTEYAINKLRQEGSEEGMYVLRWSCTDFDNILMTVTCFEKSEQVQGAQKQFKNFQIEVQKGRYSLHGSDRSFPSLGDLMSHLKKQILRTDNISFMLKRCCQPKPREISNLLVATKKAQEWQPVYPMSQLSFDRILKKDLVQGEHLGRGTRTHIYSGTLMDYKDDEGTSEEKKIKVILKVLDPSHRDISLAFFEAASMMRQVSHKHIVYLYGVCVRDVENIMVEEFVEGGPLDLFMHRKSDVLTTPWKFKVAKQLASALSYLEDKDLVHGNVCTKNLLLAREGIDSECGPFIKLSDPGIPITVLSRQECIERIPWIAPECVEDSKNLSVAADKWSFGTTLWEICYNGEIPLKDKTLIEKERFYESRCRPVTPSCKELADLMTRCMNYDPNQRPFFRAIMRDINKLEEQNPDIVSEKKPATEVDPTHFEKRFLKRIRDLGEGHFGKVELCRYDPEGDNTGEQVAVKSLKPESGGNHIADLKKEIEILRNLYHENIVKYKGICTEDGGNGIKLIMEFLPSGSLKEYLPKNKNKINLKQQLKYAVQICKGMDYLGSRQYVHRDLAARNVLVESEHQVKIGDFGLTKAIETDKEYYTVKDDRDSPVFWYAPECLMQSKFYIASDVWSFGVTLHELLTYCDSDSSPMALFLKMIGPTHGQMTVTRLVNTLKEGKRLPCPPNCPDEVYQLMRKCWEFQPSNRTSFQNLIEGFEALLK
T6 sequence (Q13164 whole entry): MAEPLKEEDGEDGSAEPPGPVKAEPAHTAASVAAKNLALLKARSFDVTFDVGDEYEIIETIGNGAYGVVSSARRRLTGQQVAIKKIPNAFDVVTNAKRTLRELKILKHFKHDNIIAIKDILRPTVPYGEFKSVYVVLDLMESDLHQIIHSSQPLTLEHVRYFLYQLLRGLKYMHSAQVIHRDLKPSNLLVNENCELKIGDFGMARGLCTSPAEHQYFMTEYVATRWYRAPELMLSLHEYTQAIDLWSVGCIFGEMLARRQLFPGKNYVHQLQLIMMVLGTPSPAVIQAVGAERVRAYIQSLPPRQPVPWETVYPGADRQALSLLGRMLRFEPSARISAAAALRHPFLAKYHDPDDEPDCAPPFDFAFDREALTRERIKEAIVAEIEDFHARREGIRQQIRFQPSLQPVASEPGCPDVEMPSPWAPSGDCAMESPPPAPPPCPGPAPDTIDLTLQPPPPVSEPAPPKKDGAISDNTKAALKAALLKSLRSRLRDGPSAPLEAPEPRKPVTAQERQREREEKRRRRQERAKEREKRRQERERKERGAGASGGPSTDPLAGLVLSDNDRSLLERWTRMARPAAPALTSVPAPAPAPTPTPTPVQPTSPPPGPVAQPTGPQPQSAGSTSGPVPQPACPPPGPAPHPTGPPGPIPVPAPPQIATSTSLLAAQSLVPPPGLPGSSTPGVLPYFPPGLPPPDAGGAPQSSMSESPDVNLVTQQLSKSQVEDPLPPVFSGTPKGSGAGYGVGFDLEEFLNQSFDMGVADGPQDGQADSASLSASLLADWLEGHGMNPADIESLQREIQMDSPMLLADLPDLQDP
T3 sequence (Q07912 whole entry): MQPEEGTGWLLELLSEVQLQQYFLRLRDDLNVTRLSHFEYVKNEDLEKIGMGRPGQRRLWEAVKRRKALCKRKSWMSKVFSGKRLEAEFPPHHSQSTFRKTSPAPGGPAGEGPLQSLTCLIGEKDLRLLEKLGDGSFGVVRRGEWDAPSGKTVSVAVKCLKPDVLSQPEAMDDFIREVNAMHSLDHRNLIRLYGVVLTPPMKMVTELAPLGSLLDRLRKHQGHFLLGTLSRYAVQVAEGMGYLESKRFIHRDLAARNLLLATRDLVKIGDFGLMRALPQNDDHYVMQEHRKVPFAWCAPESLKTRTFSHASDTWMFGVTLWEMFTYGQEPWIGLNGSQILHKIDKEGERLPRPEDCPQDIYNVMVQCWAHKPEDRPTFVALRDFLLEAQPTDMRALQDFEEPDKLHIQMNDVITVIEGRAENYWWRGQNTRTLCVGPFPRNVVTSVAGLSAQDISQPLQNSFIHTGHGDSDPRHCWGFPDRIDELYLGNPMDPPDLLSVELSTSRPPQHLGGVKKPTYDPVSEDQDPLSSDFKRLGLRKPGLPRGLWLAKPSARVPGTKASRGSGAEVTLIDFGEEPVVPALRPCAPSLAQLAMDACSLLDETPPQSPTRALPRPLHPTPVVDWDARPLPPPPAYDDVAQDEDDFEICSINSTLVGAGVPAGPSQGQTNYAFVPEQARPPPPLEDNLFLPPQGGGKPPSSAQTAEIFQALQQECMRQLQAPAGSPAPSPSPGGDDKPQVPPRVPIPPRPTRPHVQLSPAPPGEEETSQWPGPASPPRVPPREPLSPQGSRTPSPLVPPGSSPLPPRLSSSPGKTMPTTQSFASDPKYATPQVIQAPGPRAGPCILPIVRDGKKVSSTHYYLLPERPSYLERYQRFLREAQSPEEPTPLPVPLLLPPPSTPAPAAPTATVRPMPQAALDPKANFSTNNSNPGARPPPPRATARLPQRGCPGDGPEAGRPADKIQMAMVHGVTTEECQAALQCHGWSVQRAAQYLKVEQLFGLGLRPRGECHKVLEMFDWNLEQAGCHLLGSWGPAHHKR

| Structure (SMILES) | inhibition at 1 µM (AurA) [%] | inhibition at 1 µM (JAK1) [%] | Kinase inhibition % at indicated screening concentration: ABL or ARG (ABL or ARG; screening concentration 1.0 μM) | Kinase inhibition % at indicated screening concentration: AurB or AurC (AurB or AurC; screening concentration 1.0 μM) | inhibition at 1 µM (ACK) [%] | inhibition at 10 µM [1] [%] | Kinase inhibition % at indicated screening concentration: AMPKa1 or AMPKa2 (AMPKa1 or AMPKa2; screening concentration 1.0 μM) | inhibition at 1 µM (TAO2) [%] | IC50 (ERK5) [nM] | inhibition at 1 µM (ERK5; [2]) [%] | inhibition at 0.1 µM (AurA; screening concentration 0.1 μM) [%] | inhibition at 0.1 µM (JAK1; screening concentration 0.1 μM) [%] | Kinase inhibition % at indicated screening concentration: ABL or ARG (ABL or ARG; screening concentration 0.1 μM) | Kinase inhibition % at indicated screening concentration: AurB or AurC (AurB or AurC; screening concentration 0.1 μM) | inhibition at 0.1 µM (ACK; screening concentration 0.1 μM) [%] | Kinase inhibition % at indicated screening concentration: AMPKa1 or AMPKa2 (AMPKa1 or AMPKa2; screening concentration 0.1 μM) | inhibition at 0.1 µM (TAO2; screening concentration 0.1 μM) [%] | inhibition at 0.1 µM (ERK5; screening concentration 0.1 μM, read-out: Kinase inhibition % at indicated screening concentration: ERK5) [%] |
| --- | --- | --- | --- | --- | --- | --- | --- | --- | --- | --- | --- | --- | --- | --- | --- | --- | --- | --- |
| CN1C(=O)c2ccccc2N(C)c2cc(NC3CCC(C(=O)O)CC3)ncc21 (stereo not shown) [Compound 23] | ≤ 35 | ≤ 35 | E (E is ≦35%) | E (E is ≦35%) | ≤ 35 | < 70 | E (E is ≦35%) | ≤ 35 | > 500 | 35 to 50 |  |  |  |  |  |  |  |  |
| CCOc1cc(C(=O)N2CC[C@@H](NC)C2)ccc1Nc1cc2c(cn1)N(C)C(=O)c1ccccc1N2C [Compound 26] |  |  |  |  |  | > 85 |  |  | ≤ 50 |  | ≤ 35 | ≤ 35 | E (E is ≦35%) | E (E is ≦35%) | ≤ 35 | E (E is ≦35%) | ≤ 35 | 75 to 90 |
| CCN(CC)CCNC(=O)c1cccc(Nc2cc3c(cn2)N(C)C(=O)c2ccccc2N3C)c1OC [Compound 29] | ≤ 35 | ≤ 35 | E (E is ≦35%) | E (E is ≦35%) | ≤ 35 | < 70 | E (E is ≦35%) | ≤ 35 | 101 to 500 | 50 to 75 |  |  |  |  |  |  |  |  |
| CN1C(=O)c2ccccc2N(C)c2cc(N[C@H]3CC[C@H](O)CC3)ncc21 [Compound 33, 3-((1r,4r)-4-hydroxycyclohexylamino)-5,11-dimethyl-5H-benzo[e]pyrido[3,4-b][1,4]diazepin-10(11H)-one] | ≤ 35 | ≤ 35 | E (E is ≦35%) | E (E is ≦35%) | ≤ 35 | < 70 | E (E is ≦35%) | ≤ 35 | 101 to 500 | 75 to 90 |  |  |  |  |  |  |  |  |
| CN1C(=O)c2ccccc2N(C)c2cc(N[C@H]3CC[C@H](Nc4ncccn4)CC3)ncc21 [Compound 47] | ≤ 35 | ≤ 35 | E (E is ≦35%) | E (E is ≦35%) | ≤ 35 | < 70 | E (E is ≦35%) | ≤ 35 | > 500 | 35 to 50 |  |  |  |  |  |  |  |  |
| CCOc1cc(C(=O)NC(CO)CO)ccc1Nc1cc2c(cn1)N(C)C(=O)c1ccccc1N2C [Compound 48] | ≤ 35 | ≤ 35 | E (E is ≦35%) | E (E is ≦35%) | ≤ 35 | < 70 | E (E is ≦35%) | ≤ 35 | 101 to 500 | 50 to 75 |  |  |  |  |  |  |  |  |
| COc1c(Nc2cc3c(cn2)N(C)C(=O)c2ccccc2N3C)cccc1C(=O)N1CCNCC1 [Compound 78] | ≤ 35 | ≤ 35 | E (E is ≦35%) | E (E is ≦35%) | ≤ 35 | 70 to 85 | E (E is ≦35%) | ≤ 35 | > 500 | 50 to 75 |  |  |  |  |  |  |  |  |
